{"source": "patent US20150224085A1", "about": "“METHOD OF ADMINISTERING A 5,5-FUSED HETEROARYLENE HEPATITIS C VIRUS INHIBITOR FOR TREATING OF PREVENTING HEPATITIS C VIRUS INFECTION” (priority 2012, published 2015)", "key": {"[1]": {"test_system": "HCV Genotypes 1, 2, 3, and 4", "assay": "Phase I/IIa Groups C and D: antiviral activity across genotypes", "type": "in vivo, hepatitis C virus", "procedure": "(§1) The phase I/IIa study was designed to evaluate safety and tolerability, pharmacokinetics (PK), food effect, and antiviral activity with regard to the Compound. The key safety parameters that were evaluated in the trial include adverse events (AEs), physical examination, vital signs, 12-lead electrocardiogram (ECG), and standard safety laboratory tests. The key antiviral activity parameters that were evaluated in the trial include changes in plasma HCV RNA and emergence of resistance mutations. The key pharmacokinetic parameters that were evaluated in the trial include plasma and urine concentrations of the Compound.\n(§2) In the phase I/IIa study, plasma HCV RNA was quantitated using a validated commercial assay (COBAS® TAQMAN®) with a lower limit of quantitation of 25 IU/mL. HCV RNA genotyping was performed at Baseline using the Versant HCV Genotype Assay (LiPA) 2.0.\nIn Group C, the Compound was evaluated in a randomized, double-blind, placebo-controlled, parallel dosing study in 34 treatment-naive, genotype 1 HCV-infected subjects.\nIn Group D, the Compound was evaluated in an randomized, double-blind, placebo-controlled, parallel dosing study in 30 treatment-naive, genotypes 2, 3, and 4 HCV-infected subjects.\nFor all cohorts, dosing was under fasted in this study."}, "[2]": {"assay": "clinical", "details": "human, in vivo", "procedure": "as §1, §2\nIn Group B, the Compound was evaluated in an open-label, single day study in 18 subjects with chronic HCV Genotype 1, 2, or 3 infection. […] For all cohorts, dosing was under fasted in this study."}, "[3]": {"assay": "Phase I/IIa Group A: pharmacokinetics in healthy subjects", "type": "in vivo, human", "procedure": "The phase I/IIa study was designed to evaluate safety and tolerability, pharmacokinetics (PK), food effect, and antiviral activity with regard to the Compound. The key safety parameters that were evaluated in the trial include adverse events (AEs), physical examination, vital signs, 12-lead electrocardiogram (ECG), and standard safety laboratory tests. The key antiviral activity parameters that were evaluated in the trial include changes in plasma HCV RNA and emergence of resistance mutations. The key pharmacokinetic parameters that were evaluated in the trial include plasma and urine concentrations of the Compound. […]\nThe Compound was first evaluated in a randomized, double-blind, placebo-controlled, sequential dose escalation study in 48 healthy subjects. For each cohort, there were 6 subjects to receive the Compound and 2 subjects to receive placebo. Except cohort 5a, the Compound was administered under fasted conditions.\nFor the food effect study (cohort 5a), subjects received a single dose of 50 mg of the Compound or placebo on Days 1 and 8, with a 7 day washout between dosing periods. In the food effect study, the subjects were randomized among two groups, differing by fasted/fed dosing sequences as shown in Table 3."}, "[4]": {"details": "healthy subjects, 100 mg QD x 7 days, fasted, PK Day 1, mean ± SD"}, "[5]": {"details": "human, plasma, oral, 5 mg, healthy subjects, 5 mg single dose, fasted, PK Day 1, mean ± SD"}}, "note": "Where “and” joins values, the source holds several entries; their conditions need not be identical. Equal entries are not always repeated.", "data": [{"smiles": "COC(=O)N[C@H](C(=O)N1CCC[C@H]1c1nc2cc(-c3csc4c(-c5ccc(-c6cnc([C@@H]7CCCN7C(=O)[C@H](NC(=O)OC)c7ccccc7)[nH]6)cc5)csc34)ccc2[nH]1)C(C)C", "note": "[the Compound, [(S)-1-((S)-2-{6-[6-(4-{(S)-2-[1-((R)-2-methoxycarbonylamino-2-phenyl-acetyl)-pyrrolidin-2-yl]-3H-imidazol-4-yl}-phenyl)-thieno[3,2-b]thiophen-3-yl]-1H-benzoimidazol-2-yl}-pyrrolidine-1-carbonyl)-2-methyl-propyl]-carbamic acid methyl ester]", "values": [{"measurement": "antiviral activity", "setting": "[1]; Genotype 1, 2, 3, and 4 HCV-infected subjects", "result": "potent, pan-genotypic antiviral activity"}, {"measurement": "rebound (>1.0 log10 IU/mL increase over nadir)", "setting": "[1]; during the 3 days of dosing", "result": "No subject experienced a rebound"}, {"measurement": "mean maximal HCV RNA reductions", "setting": "[1]; total dose of 100 mg/day for 3 days, Genotypes 1, 3, and 4", "result": "approximately 3.5 log10 IU/mL"}, {"measurement": "exposure versus dose", "setting": "[2]", "result": "Dose proportional exposure"}, {"measurement": "AUC(0-inf)", "setting": "[2]; 1 mg", "result": "0.008 ± 0.0058", "unit": "µg·h/mL"}, {"measurement": "Cmax", "setting": "[2]; 1 mg", "result": "0.5 ± 0.4", "unit": "ng/mL"}, {"measurement": "Tmax", "setting": "[2]; 1 mg", "result": 4, "unit": "h"}, {"measurement": "half-life", "setting": "[2]; 1 mg", "result": "13 ± 6", "unit": "h"}, {"measurement": "AUC(0-inf)", "setting": "[2]; 5 mg", "result": "0.039 ± 0.0145", "unit": "µg·h/mL"}, {"measurement": "Cmax", "setting": "[2]; 5 mg", "result": "2.2 ± 1.1", "unit": "ng/mL"}, {"measurement": "Tmax", "setting": "[2]; 5 mg", "result": 4, "unit": "h"}, {"measurement": "half-life", "setting": "[2]; 5 mg", "result": "13 ± 0.5", "unit": "h"}, {"measurement": "AUC(0-inf)", "setting": "[2]; 10 mg", "result": "0.188 ± 0.0037", "unit": "µg·h/mL"}, {"measurement": "Cmax", "setting": "[2]; 10 mg", "result": "9 ± 1.2", "unit": "ng/mL"}, {"measurement": "Tmax", "setting": "[2]; 10 mg", "result": 3, "unit": "h"}, {"measurement": "half-life", "setting": "[2]; 10 mg", "result": "24 ± 5.9", "unit": "h"}, {"measurement": "AUC(0-inf)", "setting": "[2]; 25 mg", "result": "0.216 ± 0.0806", "unit": "µg·h/mL"}, {"measurement": "Cmax", "setting": "[2]; 25 mg", "result": "13.8 ± 3.8", "unit": "ng/mL"}, {"measurement": "Tmax", "setting": "[2]; 25 mg", "result": 3.5, "unit": "h"}, {"measurement": "half-life", "setting": "[2]; 25 mg", "result": "18 ± 3.8", "unit": "h"}, {"measurement": "AUC(0-inf)", "setting": "[2]; 50 mg", "result": "0.576 ± 0.299", "unit": "µg·h/mL"}, {"measurement": "Cmax", "setting": "[2]; 50 mg", "result": "35.2 ± 16.5", "unit": "ng/mL"}, {"measurement": "Tmax", "setting": "[2]; 50 mg", "result": 4, "unit": "h"}, {"measurement": "half-life", "setting": "[2]; 50 mg", "result": "22 ± 1.8", "unit": "h"}, {"measurement": "AUC(0-inf)", "setting": "[2]; 100 mg", "result": "1.34 ± 0.282", "unit": "µg·h/mL"}, {"measurement": "Cmax", "setting": "[2]; 100 mg", "result": "95 ± 20.4", "unit": "ng/mL"}, {"measurement": "Tmax", "setting": "[2]; 100 mg", "result": 4, "unit": "h"}, {"measurement": "half-life", "setting": "[2]; 100 mg", "result": "19 ± 2", "unit": "h"}, {"measurement": "reduction of exposure by food", "setting": "[3]; 50 mg, after high-fat (about 55 g), high-calorie (about 950 kcal) meal", "result": "approximately two-thirds"}, {"measurement": "increase of AUC0-inf upon reaching steady state", "setting": "[3]; QD dosing x 7 days", "result": "approximately 50%"}, {"measurement": "increase of Ctrough upon reaching steady state", "setting": "[3]; QD dosing x 7 days", "result": "about 70%"}, {"measurement": "Ctrough", "setting": "[3]; healthy subjects, 5 mg single dose, fasted, PK Day 1, mean ± SD", "result": "1.6 ± 0.5", "unit": "ng/mL"}, {"measurement": "Ctrough", "setting": "[3]; healthy subjects, 10 mg single dose, fasted, PK Day 1, mean ± SD", "result": "3.7 ± 1.8", "unit": "ng/mL"}, {"measurement": "Ctrough", "setting": "[3]; healthy subjects, 25 mg single dose, fasted, PK Day 1, mean ± SD", "result": "8.1 ± 2.9", "unit": "ng/mL"}, {"measurement": "Ctrough", "setting": "[3]; healthy subjects, 50 mg single dose, fasted, PK Day 1, mean ± SD", "result": "13.4 ± 4.6", "unit": "ng/mL"}, {"measurement": "Ctrough", "setting": "[3]; healthy subjects, 50 mg single dose, fed, PK Day 1, mean ± SD", "result": "5.6 ± 1.3", "unit": "ng/mL"}, {"measurement": "AUC0-24 (column AUC0-inf, footnote 1)", "setting": "[3]; [4]", "result": "980 ± 312.4^1 ng · h/mL"}, {"measurement": "Ctrough", "setting": "[3]; [4]", "result": "20.4 ± 9.0", "unit": "ng/mL"}, {"measurement": "Ctrough", "setting": "[3]; healthy subjects, 100 mg QD x 7 days, fasted, PK Day 7, mean ± SD", "result": "34 ng/mL and 34.0 ± 14.4 ng/mL"}, {"measurement": "Ctrough", "setting": "[3]; healthy subjects, 100 mg single dose, fasted, PK Day 1, mean ± SD", "result": "17.1 ± 6.2", "unit": "ng/mL"}, {"measurement": "exposure versus dose", "setting": "[3]; healthy volunteers, dose range 5 to 100 mg", "result": "Dose proportional exposure"}, {"measurement": "Cmax", "setting": "[3]; [5]", "result": "5.1 ± 1.1", "unit": "ng/mL"}, {"measurement": "half-life", "setting": "[3]; [5]", "result": "21 ± 4.5", "unit": "h"}]}]}
